PMC9211429 (Antimicrobial Agents and Chemotherapy, 2022)
Values belong to the compound of their own block, whether it stands above or below them.

Legend:
HIV = system: HIV; design: method as in earlier work; conditions: cited from earlier work
clinical [1] = conditions: human, in vivo; for AUC(0-t): AUC0-24 PBMC
[2] = human, in vivo
clinical [3] = conditions: human, in vivo, AUC0-24 Plasma

Structure (SMILES): CC(C)CN(C[C@@H](O)[C@H](Cc1ccccc1)NC(=O)O[C@H]1CO[C@H]2OCC[C@H]21)S(=O)(=O)c1ccc(N)cc1 [DRV, darunavir]
90% effective concentration (EC90) (HIV): 0.2 µg/mL
AUC(0-t) (clinical [1]): 17500 ng·h/mL

AUC0-24 PBMC [2]: 12807 ng·h/mL
AUC(0-t) (clinical [3]): 31600 ng·h/mL
AUC(0-t) (clinical [1]): 14900 ng·h/mL
Kp (clinical [1]; Ctrough in PBMC relative to plasma, throughout the protocol): ~0.25
Kp (clinical [1]; PBMC/Plasma Ctrough ratio): 0.19
AUC0-24 Plasma (human, in vivo): 30967 ng·h/mL
Structure (SMILES): C[C@@H]1CCO[C@H]2Cn3cc(C(=O)NCc4ccc(F)cc4F)c(=O)c(O)c3C(=O)N12 [DTG, dolutegravir]

Structure (SMILES): CO[C@H]1/C=C/O[C@@]2(C)Oc3c(C)c(O)c4c(O)c(c(/C=N/N5CCN(C)CC5)c(O)c4c3C2=O)NC(=O)/C(C)=C\C=C\[C@H](C)[C@H](O)[C@@H](C)[C@@H](O)[C@@H](C)[C@H](OC(C)=O)[C@@H]1C [RIF, rifampicin]
Cmax Plasma (median, DRV/RTV 1600/200 QD + DTG + RIF (n = 4)): 11240 ng/mL

Structure (SMILES): CC(C)c1nc(CN(C)C(=O)N[C@H](C(=O)N[C@@H](Cc2ccccc2)C[C@H](O)[C@H](Cc2ccccc2)NC(=O)OCc2cncs2)C(C)C)cs1 [RTV, ritonavir]
AUC(0-t) (clinical [3]): 6070 ng·h/mL
AUC(0-t) (clinical [1]): 9830 ng·h/mL
